Experimental data taken from PubChem BioAssay (NCI).
Values joined by “and” are separate entries in the source; they are usually repeats but may differ in a detail not shown here. Identical values can stand only once.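 Test compounds were applied to cells in 96-well plates for 48 hours at 5 doses. Abbreviation: GI50, concentration required for 50% inhibition of growth. The concentration for full growth arrest is given as TGI.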

Assays:
Test in all cases: growth of human tumour cells (NCI), 48 h
DU-145 prostate = tested on: DU-145 prostate
MCF7 breast = tested on: MCF7 breast
MDA-MB-231 breast = tested on: MDA-MB-231 breast
MDA-MB-435 = tested on: MDA-MB-435
PC-3 prostate = tested on: PC-3 prostate

Structure (SMILES) | GI50 (DU-145 prostate) | TGI (DU-145 prostate) [µM] | GI50 (MCF7 breast) | TGI (MCF7 breast) [µM] | GI50 (MDA-MB-231 breast) | TGI (MDA-MB-231 breast) [µM] | GI50 (MDA-MB-435) | TGI (MDA-MB-435) | GI50 (PC-3 prostate) | TGI (PC-3 prostate) [µM]
Cc1nn(-c2nc3ccccc3[nH]2)c2c1C(c1ccc3c(c1)OCO3)CC(=O)N2 (stereo unspecified) | 3.23 µM | 9.12 | 2.98 µM | > 30.1 | 2.18 µM | 5.22 | 2.46 µM | 6.3 µM | 3.16 µM | 22
O=C(N/N=C\c1ccc(N(CCCl)CCCl)cc1Cl)c1cccnc1 | 16.2 µM | 59.6 | 1.39 µM | > 82.6 | 14.1 µM | 62.3 | 17.1 µM | 46.1 µM | 19.2 µM | > 100
CSC1C(=O)c2ccccc2/C(=N/Nc2nc3ccccc3s2)C1C (stereo unspecified) | 9.59 µM | 18.3 | 5.52 µM | 34.7 | 7.79 µM | 15.8 | 9.38 µM | 19.8 µM | 9.28 µM | 27.2
S=C(Nc1ccccc1)N(Cc1ccccc1)c1ccccc1 | – | 24.7 | – | > 100 | – | > 100 | – | 49.5 µM | – | –
COc1ccc2c(c1)OC(N)=C(C#N)C2c1ccc(F)cc1 (stereo unspecified) | 3.05 µM | > 100 | 0.522 µM | > 100 | 3.09 µM | 97.5 | 0.22 µM | 0.601 µM | 3.09 µM | 99
O=C(CN1C(=O)c2ccccc2C1=O)C(O)CN1C(=O)c2ccccc2C1=O (stereo unspecified) | – | > 100 | – | > 100 | – | 50.5 | – | > 100 µM | – | > 100
Clc1nc(Cl)c(Cc2ccccc2)c(Cl)n1 | – | 28.7 | – | 21.4 | – | 14.9 | – | 19 µM | – | 44.5
N#C[S-].[Au+].c1ccc(CN2[CH-]N(Cc3ccccc3)C(c3ccccc3)=C2c2ccccc2)cc1 | 0.479 µM | 1.69 | – | – | – | – | 0.492 µM | 1.74 µM | – | –
C=C1CC[C@@H]2[C@](C)(COC(C)=O)[C@H](OC(C)=O)CC[C@@]2(C)[C@@H]1C/C=C1/C(=O)OC[C@H]1OC(C)=O | 4.47 µM | 14.7 | 1.83 µM | 6.79 | 12.5 µM | 27.1 | 2.63 µM | 10.1 µM | 6.07 µM | 19.9
CN(C)CCNC(=O)c1cc2c3ccccc3[nH]c2c2ncccc12 | 11.5 µM | 30.7 | 4.53 µM | 20.9 | 5.25 µM | 26.8 | 2.89 µM | 15.4 µM | 9.14 µM | 34.2
N#CC1=C(N)Oc2c(sc3c(F)cccc23)C1c1ccc(F)cc1 (stereo unspecified) | 1.79 µM | 12.9 | 0.391 µM | 12.4 | 1.44 µM | 11.5 | 0.212 µM | 0.631 µM | 0.892 µM | 16.2
O=C(/C=C/c1ccc(C(F)(F)F)cc1)c1ccc(Nc2nc(NCCO)nc(N3CCOCC3)n2)cc1 | 2.19 µM | 4.58 | 1.25 µM | 3.95 | 2.69 µM | 9.74 | 2.23 µM | 5.35 µM | 2.24 µM | 7.83
COC(=O)[C@@H](C)C[C@H](Cc1ccccc1)NC(=O)c1csc([C@@H](C[C@H](C(C)C)N(C)C(=O)C2(NC(=O)[C@H]3CCCCN3C)CC2)OC(C)=O)n1 | 0.00348 µM and 0.00333 µM | – | 0.000612 µM and 0.00333 µM | > 33.3 | 0.00681 µM and 0.00333 µM | 4.36 | 0.000405 µM and < 0.00333 µM | 0.00273 µM and < 0.00333 µM | 0.00523 µM and 0.00333 µM | > 33.3
C/C=C/C=C\C1OC(O)([C@H](CC)C(=O)NC/C=C/C=C(\C)[C@H](OC)C(C)C2OC(\C=C/C=C/C=C(\C)C(=O)c3c(O)ccn(C)c3=O)[C@H](O)[C@@H]2O)C(O)C(O)C1(C)C (stereo partly specified) | – | > 100 | – | > 100 | – | > 100 | – | > 100 µM | – | > 100
COC(=O)c1cc2oc(/C=C3\SC(=S)N(NC(C)=O)C3=O)cc2n1Cc1ccccc1 | 1.7 µM | 9.85 | 2.53 µM | > 50 | 9.02 µM | 17.4 | 1.1 µM | 4.02 µM | 1.61 µM | 9.82
COc1ccc(/C=C/C(=O)c2cc3c(N)c(C(=O)Nc4ccccc4)sc3nc2C)cc1 | 0.19 µM | > 22.9 | 0.128 µM | > 50 | 0.377 µM | > 31.8 | – | – | 0.184 µM | > 50
COc1ccc2nc(C)cc(Nc3ccccc3O)c2c1 | 45.3 µM | > 100 | 20.5 µM | 51.2 | 27.9 µM | > 100 | 18.1 µM | 45.4 µM | 29.9 µM | > 100
CCOC1C=CCCO1 (stereo unspecified) | – | > 100 | – | > 100 | – | > 100 | – | > 100 µM | – | > 100
CC1=C(C(=O)Nc2ccc(F)c(Cl)c2)C(c2cccc(Oc3ccccc3)c2)NC(=O)N1 (stereo unspecified) | 13.4 µM | 26.4 | 17.6 µM | 43.7 | 16 µM | 30.3 | 18.8 µM | 39.8 µM | 10.5 µM | 22.3
COc1cc([N+](=O)[O-])c(OC)cc1-c1nc2sc(Cl)cn2c1/C=N/NC(=N)N/N=C/c1c(-c2cc(OC)c([N+](=O)[O-])cc2OC)nc2sc(Cl)cn12 | 1.91 µM | 4.06 | – | – | 1.59 µM | 3.4 | – | – | 1.97 µM | 3.47
O=C(NCP(=O)(O)O)c1cccnc1 | – | > 100 | – | > 100 | – | > 100 | – | > 100 µM | – | > 100
CN(C)c1ccc(O)c2c1C[C@H]1C[C@H]3[C@H](N(C)C)C(=O)C(C(N)=O)=C(O)[C@@]3(O)C(=O)C1=C2O | 5.07 µM | 73.6 | 10.1 µM | > 100 | 10.5 µM | 43.6 | 5.18 µM | 33.2 µM | 6.61 µM | 93.2
COc1cc(/C=C/C(=O)c2c(C)n([O-])c3ccc(Cl)cc3[n+]2=O)cc(OC)c1OC | 21.7 µM | > 100 | 57 µM | > 100 | 14.7 µM | 96.6 | > 100 µM | > 100 µM | 27.5 µM | > 100
